Converted amounts (≈) assume the structure as drawn. Read-outs that look alike come from different tables or passages of the source.
What was measured:
[1] = tested on: human hepatocellular carcinoma cells (Hep-G2); assay: Resazurin cytotoxicity assay, HepG2
From the text: (§1) To identify marine samples with activity against MRSA, 1434 compounds from the AIMS Bioresources Library (provided by the Queensland Compound Library, Brisbane, Australia, now called Compounds Australia) were screened in a resazurin cell viability assay.
(§2) Toxicity of AIMS Extract Library. Human alveolar epithelial cells (A549), Madin-Darby canine kidney epithelial cells (MDCK), human leukaemia cells (THP-1), human hepatocellular carcinoma cells (Hep-G2) and human embryonic kidney cells 293 (HEK293) were grown and differentiated in complete RPMI (Roswell Park Memorial Institute Medium) and DMEM (Dulbecco’s Modified Eagle’s medium) tissue culture media (RPMIc and DMEMc, from the Thermo Fisher Scientific, Waltham, MA, USA) by adding 10% FBS, 200 µM L-glutamine and 1 mM HEPES buffer solution. To determine toxicity of the AIMS extract library, 2 × 10^5 of each cell type were added to a 96-well plate and left for 48 h in a humidified 5% CO2 incubator at 37 °C to adhere. Extract samples at a final concentration of 0.5 mg mL^−1 were added to the wells, then the plates incubated for 4 more days in a humidified 5% CO2 incubator at 37 °C. Then, resazurin (10 μL of 0.05% w/v) was added and after 4 h, fluorescence measured as described previously. The cell viability was calculated as percentage fluorescence relative to untreated cells.

P. aeruginosa PAO1 = assay: Resazurin bacterial inhibition assay (MIC), P. aeruginosa; assay type: cell-based; conditions: Pseudomonas aeruginosa, PAO1; commercial compounds; 18 h, resazurin; read-out: Minimum Inhibitory Concentration P. aeruginosa
[2] = tested on: human embryonic kidney cells 293 (HEK293); assay: Resazurin cytotoxicity assay, HEK 293
From the text: as §1, §2

[3] = tested on: methicillin-resistant Staphylococcus aureus (MRSA); assay: Resazurin bacterial inhibition assay (MIC), MRSA; assay type: cell-based; conditions: commercial compounds, 18 h, resazurin, read-out: Minimum Inhibitory Concentration MRSA
M. tuberculosis H37Rv = assay: Resazurin bacterial inhibition assay (MIC), M. tuberculosis; assay type: cell-based; conditions: Mycobacterium tuberculosis, 168 h, commercial compounds, 7 days, read-out: Minimum Inhibitory Concentration M. tuberculosis H37Rv
E. coli EC958 = assay: Resazurin bacterial inhibition assay (MIC), E. coli; assay type: cell-based; conditions: commercial compounds, 18 h, resazurin, read-out: Minimum Inhibitory Concentration E. coli
[4] = tested on: human leukaemia cells (THP-1); assay: Resazurin cytotoxicity assay, THP-1
From the text: as §1
as §2, with “Extract samples at a final concentration of 0.5 mg mL^−1 were added to the wells, then the plates incubated for 4 more days in a humidified 5% CO2 incubator at 37 °C.” left out

[5] = tested on: Human alveolar epithelial cells (A549); assay: Resazurin cytotoxicity assay, A549
From the text: as §1, §2

[6] = commercial compounds, unit from Table 8 head
[7] = commercial compounds, unit from Table 8 head, listed as 1,10 phenanthroline

SMILES	Minimum Toxicity Concentration HepG2 [1, 6]	MIC (P. aeruginosa PAO1)	Minimum Toxicity Concentration HEK 293 [2, 6]	MIC ([3]; Staphylococcus aureus, MRSA)	MIC (M. tuberculosis H37Rv)	MIC (E. coli EC958; Escherichia coli, EC958)	Minimum Toxicity Concentration THP-1 [4, 6]	Minimum Toxicity Concentration A549 [5, 6]	Minimum Toxicity Concentration HepG2 ([1]; human, 4 days)	Minimum Toxicity Concentration HEK 293 ([2]; human, 4 days)	MIC [3]	Minimum Toxicity Concentration THP-1 ([4]; human, 4 days)	Minimum Toxicity Concentration A549 ([5]; human, 4 days)	Minimum Toxicity Concentration HEK 293 [2, 7]	Minimum Toxicity Concentration THP-1 [4, 7]	Minimum Toxicity Concentration A549 [5, 7]	MIC (E. coli EC958)
c1cnc2c(c1)ccc1ncccc12 [1,7-phenanthroline]	>100 µM	2.5 µM (≈ 0.451 µg/mL)	>100 µM	25 µM (≈ 4.51 µg/mL)	> 100 µM	25 µM (≈ 4.51 µg/mL)	>100 µM	>100 µM	–	–	–	–	–	–	–	–	–
O=C1C(=O)c2cccnc2-c2ncccc21 [1,10-Phenanthroline-5,6-dione]	–	0.04 µM (≈ 0.00841 µg/mL)	–	0.04 µM (≈ 0.00841 µg/mL)	0.1 µM (≈ 0.021 µg/mL)	0.04 µM (≈ 0.00841 µg/mL)	–	–	0.1 µM	0.1 µM	0.04 µM (≈ 0.00841 µg/mL)	0.1 µM	0.1 µM	–	–	–	–
c1cnc2c(c1)ccc1cccnc12 [1,10-phenanthroline]	0.1 µM	0.3 µM (≈ 0.0541 µg/mL)	50 µM	> 100 µM	0.1 µM (≈ 0.018 µg/mL)	50 µM (≈ 9.01 µg/mL)	0.1 µM	3 µM	–	–	–	–	–	0.1 µM	3 µM	50 µM	–
c1ccc(-c2ccccn2)nc1 [2,2′-Bipyridine]	3 µM	> 100 µM	3 µM	> 100 µM	0.1 µM (≈ 0.0156 µg/mL)	> 100 µM	50 µM	>100 µM	–	–	–	–	–	–	–	–	–
Cc1cc(-c2ccccc2)c2ccc3c(-c4ccccc4)cc(C)nc3c2n1 [2,9-Dimethyl-4,7-diphenyl-1,10-phenanthroline]	–	50 µM (≈ 18 µg/mL)	–	25 µM (≈ 9.01 µg/mL)	50 µM (≈ 18 µg/mL)	0.78 µM (≈ 0.281 µg/mL)	–	–	0.1 µM	0.1 µM	–	>100 µM	>100 µM	–	–	–	–
Cc1cnc2c(ccc3c(C)c(C)cnc32)c1C [3,4,7,8-Tetramethyl-1,10-phenanthroline]	0.1 µM	0.3 µM (≈ 0.0709 µg/mL)	0.1 µM	0.3 µM (≈ 0.0709 µg/mL)	0.1 µM (≈ 0.0236 µg/mL)	0.3 µM (≈ 0.0709 µg/mL)	0.1 µM	0.1 µM	–	–	–	–	–	–	–	–	–
Cc1ccnc2c1ccc1c(C)ccnc12 [4,7-Dimethyl-1,10-Phenanthrolin]	–	0.1 µM (≈ 0.0208 µg/mL)	–	0.3 µM (≈ 0.0625 µg/mL)	0.1 µM (≈ 0.0208 µg/mL)	0.3 µM (≈ 0.0625 µg/mL)	–	–	0.1 µM	0.1 µM	–	0.1 µM	0.1 µM	–	–	–	–
c1cnc2ccc3ncccc3c2c1 [4,7-phenanthroline]	>100 µM	2.5 µM (≈ 0.451 µg/mL)	>100 µM	1.5 µM (≈ 0.27 µg/mL)	2.5 µM (≈ 0.451 µg/mL)	1.5 µM (≈ 0.27 µg/mL)	>100 µM	>100 µM	–	–	–	–	–	–	–	–	–
Cc1c(C)c2cccnc2c2ncccc12 [5,6-Dimethyl-1,10-phenanthroline]	0.1 µM	> 100 µM	0.1 µM	0.3 µM (≈ 0.0625 µg/mL)	0.1 µM (≈ 0.0208 µg/mL)	0.78 µM (≈ 0.162 µg/mL)	0.1 µM	0.1 µM	–	–	–	–	–	–	–	–	–
O=[N+]([O-])c1cc2cccnc2c2ncccc12 [5-Nitro-1,10-phenanthroline]	–	> 100 µM	–	0.09 µM (≈ 0.0203 µg/mL)	0.1 µM (≈ 0.0225 µg/mL)	0.78 µM (≈ 0.176 µg/mL)	–	–	0.1 µM	0.1 µM	–	0.1 µM	12 µM	–	–	–	–
c1ccc(-c2ccnc3c2ccc2c(-c4ccccc4)ccnc23)cc1 [Bathophenanthroline]	–	0.03 µM (≈ 0.00997 µg/mL)	–	0.09 µM (≈ 0.0299 µg/mL)	0.01 µM (≈ 0.00332 µg/mL)	0.019 µM (≈ 0.00632 µg/mL)	–	–	1.5 µM	25 µM	–	13 µM	3 µM	–	–	–	0.019 µM (≈ 0.00632 µg/mL)
NCc1ccccc1 [Benzylamine]	–	> 100 µM	–	> 100 µM	> 100 µM	> 100 µM	–	–	>100 µM	>100 µM	–	>100 µM	>100 µM	–	–	–	–
c1ccc(CNCc2ccccc2)cc1 [Dibenzylamine]	–	12.5 µM (≈ 2.47 µg/mL)	–	> 100 µM	> 100 µM	> 100 µM	–	–	>100 µM	>100 µM	–	>100 µM	>100 µM	–	–	–	–
C1CCC(NC2CCCCC2)CC1 [Dicyclohexylamine]	>100 µM	12.5 µM (≈ 2.27 µg/mL)	>100 µM	> 100 µM	> 100 µM	> 100 µM	>100 µM	>100 µM	–	–	–	–	–	–	–	–	–
CCCCCCCCNCCCCCCCC [Dioctylamine]	>100 µM	3 µM (≈ 0.724 µg/mL)	>100 µM	6.2 µM (≈ 1.5 µg/mL)	> 100 µM	6.2 µM (≈ 1.5 µg/mL)	>100 µM	>100 µM	–	–	–	–	–	–	–	–	–
c1ccc2cnccc2c1 [Isoquinoline]	–	> 100 µM	–	> 100 µM	0.1 µM (≈ 0.0129 µg/mL)	> 100 µM	–	–	3 µM	–	–	–	–	–	–	–	–
c1ccc2ncccc2c1 [Quinoline]	–	> 100 µM	–	> 100 µM	0.1 µM (≈ 0.0129 µg/mL)	> 100 µM	–	–	3 µM	–	–	–	50 µM	–	–	–	–

— paper PMC8004798, “Identification of Bioactive Compounds from Marine Natural Products and Exploration of Structure-Activity Relationships (SAR)” (Antibiotics, 2021)
